Measurements from the supplement of paper PMC10307832.

How the values were obtained:
Assay in all cases: relative viability (nuclei count vs DMSO), 5 days (fraction); higher = more cells survive
Erlotinib = compound: C#Cc1cccc(Nc2ncnc3cc(OCCOC)c(OCCOC)cc23)c1 [Erlotinib]
How it was run: (§1)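 Lung cancer cell lines in 1536-well plates were kept overnight at 37 °C, then pinned with five library-drug doses (not always all listed) spaced by √10 on vehicle-anchored plates. After 5 days without medium change, cells were fixed, permeabilised and Hoechst-stained in one step, imaged at 4×, and nuclei were counted with MetaXpress. Viability is treated-well nuclei divided by vehicle-well nuclei, taken as the median over plates. Plates passed only with control CV below 25% and at least one doubling.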

Phenformin = compound: N=C(N)NC(=N)NCCc1ccccc1 [Phenformin] (anchor plate); settings: 250 µM
How it was run: as §1

AT9283 = compound: O=C(Nc1c[nH]nc1-c1nc2ccc(CN3CCOCC3)cc2[nH]1)NC1CC1 [AT9283]
How it was run: as §1

Erlotinib + Phenformin = compound: C#Cc1cccc(Nc2ncnc3cc(OCCOC)c(OCCOC)cc23)c1 [Erlotinib] + N=C(N)NC(=N)NCCc1ccccc1 [Phenformin] (partner 250 µM)
How it was run: (§2)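 Nuclei were stained with Hoechst during a one-step fixation (final 0.05% Triton X-100, 1% formaldehyde, 1 ug/ml Hoechst) carried out 5 days after dosing, then counted on 4× images. The cells, lung cancer lines in 1536-well plates, had been dosed by pin tool the day after seeding with one drug alone or a fixed anchor-drug dose plus five library-drug doses (not always all listed) in √10 steps. Relative viability is the nuclei count in treated wells divided by that in vehicle wells, and each value is the median of duplicate plates.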

AT9283 + Navitoclax = compound: O=C(Nc1c[nH]nc1-c1nc2ccc(CN3CCOCC3)cc2[nH]1)NC1CC1 [AT9283] + CC1(C)CCC(c2ccc(Cl)cc2)=C(CN2CCN(c3ccc(C(=O)NS(=O)(=O)c4ccc(N[C@H](CCN5CCOCC5)CSc5ccccc5)c(S(=O)(=O)C(F)(F)F)c4)cc3)CC2)C1 [Navitoclax] (partner 0.5 µM)
How it was run: as §2

Erlotinib + AZD7762 = compound: C#Cc1cccc(Nc2ncnc3cc(OCCOC)c(OCCOC)cc23)c1 [Erlotinib] + NC(=O)Nc1cc(-c2cccc(F)c2)sc1C(=O)N[C@H]1CCCNC1 [AZD7762] (partner 0.2 µM)
How it was run: as §2

NCI-H441
relative viability (Erlotinib; 0.2 µM): 1.1 | relative viability (Erlotinib; 0.6325 µM): 1.05 | relative viability (Erlotinib; 2 µM): 0.848 | relative viability (Phenformin): 0.87 | relative viability (AT9283; 0.003 µM): 1.09 | relative viability (AT9283; 0.03 µM): 0.856 | relative viability (AT9283; 0.09487 µM): 0.37 | relative viability (AT9283; 0.3 µM): 0.337 | relative viability (Erlotinib + Phenformin; first compound 0.02 µM): 0.883 | relative viability (Erlotinib + Phenformin; first compound 0.2 µM): 0.863 | relative viability (Erlotinib + Phenformin; first compound 0.6325 µM): 0.892 | relative viability (AT9283 + Navitoclax; first compound 0.003 µM): 0.432 | relative viability (AT9283 + Navitoclax; first compound 0.03 µM): 0.433 | relative viability (AT9283 + Navitoclax; first compound 0.09487 µM): 0.255 | relative viability (AT9283 + Navitoclax; first compound 0.3 µM): 0.204 | relative viability (Erlotinib + AZD7762; first compound 0.02 µM): 1.2 | relative viability (Erlotinib + AZD7762; first compound 0.2 µM): 1.06 | relative viability (Erlotinib + AZD7762; first compound 0.6325 µM): 1.1 | relative viability (Erlotinib + AZD7762; first compound 2 µM): 1.11
